Test results from patent publication US8029764B2, “Methods for detection of colorectal cancer” (The Johns Hopkins University, priority 2001, dated 2011).

Tested on: colorectal tissue transcripts
Assay: SAGE of normal, adenoma and cancer colorectal tissue (transcript tag counts)
Set-up: species or system human
Summary of the method: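 SAGE libraries from two normal colonic epithelium samples, two colorectal adenomas (FAP patients, >70% neoplastic cells) and two colorectal cancers. Transcripts counted as 15-base 3′ tags from oligo(dT)-selected mRNA; repeated ditags, linkers and MHC-locus tags excluded before statistical library comparison.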

[1] = normal colorectal tissue library 1
[2] = normal colorectal tissue library 2

| Sequence | AD1 (SAGE tag count) (SAGE library AD1) | AD2 (SAGE tag count) (SAGE library AD2) | CA1 (SAGE tag count) (SAGE library CA1) | CA2 (SAGE tag count) (SAGE library CA2) | NC1 (SAGE tag count) (SAGE library NC1) | NC2 (SAGE tag count) (SAGE library NC2) | AD1 (SAGE tag count) (adenoma library 1) | AD2 (SAGE tag count) (adenoma library 2) | CA1 (SAGE tag count) (cancer library 1) | CA2 (SAGE tag count) (cancer library 2) | NC1 (SAGE tag count) [1] | NC2 (SAGE tag count) [2] |
| --- | --- | --- | --- | --- | --- | --- | --- | --- | --- | --- | --- | --- |
| CTGTGTGGCT (chemistry not fully specified; the letters are possibly those of the target site) | 1 | 0 | 0 | 0 | 0 | 12 |  |  |  |  |  |  |
| CAAATAAAAG (chemistry not fully specified) | 2 | 0 | 1 | 1 | 9 | 12 |  |  |  |  |  |  |
| CCCGCCTCTT (chemistry not fully specified) | 3 | 3 | 16 | 1 | 0 | 40 |  |  |  |  |  |  |
| TTCTGTAGCC (chemistry not fully specified) |  |  |  |  |  |  | 4 | 2 | 4 | 2 | 13 | 23 |
| GTGGTGGCAG (chemistry not fully specified; the letters are possibly those of the target site) | 1 | 1 | 10 | 3 | 29 | 11 |  |  |  |  |  |  |
| GGAGGCGCTC (chemistry not fully specified) | 1 | 1 | 0 | 1 | 5 | 11 |  |  |  |  |  |  |
| GCCCACACAG (chemistry not fully specified) | 1 | 1 | 0 | 0 | 15 | 0 |  |  |  |  |  |  |
| GCCACATACT (chemistry not fully specified) | 0 | 0 | 0 | 0 | 3 | 9 |  |  |  |  |  |  |
| CCTCCAGCTA (chemistry not fully specified) | 142 | 125 | 131 | 147 | 715 | 458 |  |  |  |  |  |  |
| CCCTCCCGAA (chemistry not fully specified) | 9 | 14 | 18 | 7 | 89 | 54 |  |  |  |  |  |  |
| TTGGGGTTTC (chemistry not fully specified) |  |  |  |  |  |  | 50 | 81 | 67 | 50 | 111 | 184 |
| GATCCCAACT (chemistry not fully specified) | 5 | 7 | 1 | 1 | 9 | 29 |  |  |  |  |  |  |
| GCACCCTTTC (chemistry not fully specified) | 0 | 0 | 1 | 0 | 13 | 5 |  |  |  |  |  |  |
| GCGAAACCCT (chemistry not fully specified) | 123 | 43 | 64 | 98 | 167 | 565 |  |  |  |  |  |  |
| TTAACCCCTC (chemistry not fully specified) |  |  |  |  |  |  | 5 | 9 | 1 | 5 | 34 | 14 |
| GGAGGCCGAG (chemistry not fully specified) | 5 | 0 | 2 | 5 | 13 | 9 |  |  |  |  |  |  |
| GCCCACGTCA (chemistry not fully specified) | 0 | 0 | 0 | 0 | 7 | 8 |  |  |  |  |  |  |
| CCTGTGACAG (chemistry not fully specified) | 0 | 4 | 3 | 1 | 22 | 27 |  |  |  |  |  |  |
| GCCCAGGTCA (chemistry not fully specified) | 136 | 128 | 58 | 22 | 519 | 447 |  |  |  |  |  |  |
| GCAGGGCCTC (chemistry not fully specified) | 41 | 69 | 39 | 51 | 128 | 165 |  |  |  |  |  |  |
| GGGACGAGTG (chemistry not fully specified) | 1 | 3 | 6 | 1 | 20 | 6 |  |  |  |  |  |  |
| GCAGCTCCTG (chemistry not fully specified) | 3 | 2 | 7 | 3 | 13 | 47 |  |  |  |  |  |  |
| GCCGGGTGGG (chemistry not fully specified) | 18 | 24 | 68 | 67 | 207 | 149 |  |  |  |  |  |  |
| GCTGGCACAT (chemistry not fully specified) | 1 | 0 | 6 | 0 | 15 | 14 |  |  |  |  |  |  |
| AATAAAGGCT (chemistry not fully specified) | 3 | 7 | 3 | 4 | 25 | 11 |  |  |  |  |  |  |
| TTTCCTCTCA (chemistry not fully specified) |  |  |  |  |  |  | 6 | 2 | 4 | 3 | 21 | 8 |
| GAGAGCTCCC (chemistry not fully specified) | 3 | 0 | 2 | 1 | 5 | 11 |  |  |  |  |  |  |
| ACTGTGGCGG (chemistry not fully specified) | 9 | 12 | 9 | 4 | 17 | 34 |  |  |  |  |  |  |
| CCAGGGGAGA (chemistry not fully specified) | 24 | 22 | 10 | 20 | 45 | 66 |  |  |  |  |  |  |
